Measurements as given in patent publication US10399958B2, “PPAR agonists, compounds, pharmaceutical compositions, and methods of use thereof” (Mitobridge, Inc., priority 2015, dated 2019).
Where two headings read alike, the source gives them in different places.

What was measured:
[1] = Pharmacokinetic (PK) screening (i.v.) in male CD1 mice; assay type: in vivo, mouse; details: male, CD1, mouse, plasma, iv, 1 mg/kg, I.V. 1 mg/kg dose, plasma
Method: In this example, the intravenous PK profile of several PPARδ agonists disclosed herein in male CD1 mice was determined. Similar methods can be used to analyze other compounds provided herein. All compounds were administered separately to CD1 mice at 1 mg/kg (i.v.), except the comparator compound to 2c was administered at 3 mg/kg (i.v.), as noted below.

[2] = system: DMD human skeletal muscle cells; assay: Mitochondrial biogenesis (BrdU labeling); assay type: cell-based; details: DMD patient cells, treated from day 4 of differentiation, FIG. 2
Method: DMD human skeletal muscle cells were plated into 96 well plates. Media was changed to Differentiation Medium and cells were allowed to differentiate for 7 days. […] Three days later cells were labeled with bromodeoxyuridine (BrdU) in culture media for 2 hours. Following the incubation, cells were washed, and then incubated with anti-BrdU antibody overnight at 4° C. The next day, samples were washed incubated with anti-mouse IgG HRP for 45 min at 37° C., and then washed. Optical density was measured at 450 nm wavelength on a SpectraMax M5 (Molecular Devices).
Data was analyzed in Graph Pad Prism. Normality of distribution was determined by D'Agostino-Pearson omnibus normality test. If the samples were normally distributed, they were analyzed by One-Way ANOVA followed by a post hoc Dunnett's test vs DMSO control cells or unpaired two tailed T-test. If the samples were not normally distributed, then a Kruskal-Wallis test was used to determine significance.

mdx mouse = assay: Endurance running assay (treadmill) in mdx mouse model of Duchenne Muscular Dystrophy; assay type: in vivo; details: mdx mice, 10 or 30 mg per kg PO, 34-35 days, FIG. 3
From the text: PPARδ is activated in response to exercise where it will elicit an increase in fatty acid utilization. Duchenne Muscular Dystrophy is a progressive, early-onset degenerative muscle disease with associated muscle function deficits resulting from the loss of the protein dystrophin. Fatty acid metabolism and altered mitochondrial function are reported to be an aspect of the disease.
C57BL/10ScSn-Dmdmdx/J and C57BL/10ScSnJ mice ˜5-7 weeks of age were received and housed singly in polycarbonate cages. Animals were fed standard chow and had access to feed and water at all times ad libitum. […] Vehicle was dosed for control groups. All the animals were dosed by oral gavage (PO) for 34-35 days. The mice were dosed at 8 AM on the last in-life study day with the necropsy started 2 hours after the final dose.
Mice were acclimated to a moving belt treadmill in a series of acclimation runs before evaluation for overall endurance at a set maximal speed. Each mouse was run in a separate lane that contained an electric stimulating grid. The number of visits to the electric stimulating grid and the number of shocks each animal received were recorded by the instrument and a technician evaluated the animal during the run to determine the time and distance to exhaustion. The maximum speed for all the three endurance runs was capped at 20 m/min. […]

mdx mouse muscle = assay: Histology pathology assessment of muscle in mdx mice; assay type: in vivo
From the text: Similar to the muscle pathology in Duchenne Muscular Dystrophy, mdx mice have dystrophic pathologies in skeletal muscle that is apparent soon after birth. Key aspects of this phenotype evident by pathology are the loss of myofibers through apoptosis/necrosis, evidence of regenerating muscle fibers, infiltrating immune cells, and increased muscle fibrosis.
Animals and dosing were as previously described. See Example 4.
Quadriceps, gastrocnemius and tibialis anterior muscles were harvested at necropsy, and fixed by immersion in 10% neutral buffered formalin and embedded in paraffin. Tissues were sectioned at […] from each block and slides were evaluated by a board certified veterinary pathologist. Histopathologic evaluation included qualitative and semi-quantitative evaluation for myofiber necrosis, inflammation, myofiber regeneration and interstitial fibrosis, as outlined in Tables 1, 2, and 3, respectively.
(§1) Diaphragm weights, histology scores and immunofluorescence data were tested using a parametric test if normality was confirmed by Shapiro-Wilk normality test (unpaired t-test for 2 groups or One way ANOVA followed by post hoc Dunn's multiple comparison testing versus the mdx vehicle group for 3 groups) and a Mann-Whitney test (2 groups) or Kruskal-Wallis One-Way ANOVA (non-parametric) followed by post hoc Dunn's multiple comparison testing versus the mdx vehicle group (3 groups) if the data were not normally distributed.

[3] = system: mdx mouse quadriceps muscle; assay: Immunofluorescent (IgM) assessment of muscle necrosis in mdx mice; assay type: in vivo; details: IgM immunofluorescence, FIG. 5
Method: Precut paraffin section slides were deparaffinized and incubated with AlexaFluor 488 conjugated wheat germ agglutinin followed by an incubation with Alexa 568 conjugated anti-mouse IgM (abcam, Product #ab175702). Slides were washed and mounted with coverslips using ProLong Diamond Antifade Mountant with DAPI. Imaging was performed on a Nikon fluorescent microscope using a 40× objective and composite images were stitched together using NIS Elements Software, V4.4 (Nikon, Tokyo, Japan). Analysis was completed using Image J 1.50b, Java 1.8.0_60 (64 bit).
as §1
Quadriceps muscle sections were labeled fluorescently to detect IgM antibody accumulation within damaged myofibers, an indication of loss of myofiber integrity and active necrosis. Each muscle section was imaged in its entirety and the number and size of necrotic regions was measured. […]

mdx mouse diaphragm = assay: Diaphragm fibrosis by hydroxyproline assay in mdx mice; assay type: in vivo; details: FIG. 10
Method: Diaphragm samples were harvested carefully and the central tendon was cut away to ensure hydroxyproline signal was derived from muscle and not collagen-rich tendon. Hydroxyproline assay was performed according to the manufacturers' instructions (Sigma-Aldrich Hydroxyproline Assay Kit). Final values were calculated as follows: […]
as §1
Diaphragms were evaluated for fibrosis by measuring hydroxyproline, an amino acid unique to collagen, in digested muscle. Mdx mice were confirmed to have increased fibrosis versus non-dystrophic control mice (FIG. 9).

[4] = system: Sprague-Dawley rat acute kidney injury; assay: Ischemia-reperfusion kidney injury in rats, plasma creatinine; assay type: in vivo; details: 30 mg/kg orally 4 hours after surgery, blood 24 hours after reperfusion, FIG. 11
Method: Sprague-Dawley male rats approximately 280-300 g, with ad libitum access to standard feed and water were used in these experiments. Rats were anesthetized with isoflurane and placed ventrally on a temperature controlled heated surgical platform. A skin incision was made on the dorsal surface, exposing both kidneys through flank incisions. Vascular clips were applied to both renal pedicles and occlusion lasted 45 minutes. After 45 min, the clips were removed, kidneys were monitored for successful reperfusion, and surgical sites were sutured. The sham group was subjected to similar surgical procedures, except that the occluding clamps were not applied. Four independent studies, testing each compound were performed. Compounds were formulated as a fresh daily suspension in 0.25% sodium carboxymethyl-cellulose, 0.25% Tween-80 in purified water. Compounds were dosed orally at 30 mg/kg 4 hours after animals awoke from surgery and sham surgery and IRI control animals were similarly dosed with vehicle.
Twenty-four (24) hours after reperfusion, blood was collected in K2 EDTA tubes by retro-orbital bleeding from all groups under mild isoflurane anesthesia. Plasma was separated by centrifugation at 3000 rpm for 10 minutes at 4° C. Plasma creatinine was analyzed using a fully automated clinical biochemistry analyzer (Siemens Dimension® Xpand® Plus Integrated Chemistry System)
Creatinine was tested for normal distribution in all groups via a D'Agostino-Pearson omnibus normality test and a Shapiro-Wilk normality test. Normally distributed data was subjected to an unpaired, two-tailed t test. Non-normally distributed data was subjected to a Mann-Whitney test (non-parametric). Statistical significance is determined by p<0.05 of IRI-vehicle compared to compound treated groups.

In the case of `Cc1cnc(-c2ccc(C(F)(F)F)cc2)n1Cc1ccccc1OCCC[C@@H](C)CC(=O)O` [Compound 2d, (R)-3-methyl-6-(2-((5-methyl-2-(4-(trifluoromethyl)phenyl)-1H-imidazol-1-yl)methyl)phenoxy)hexanoic acid], the clearance ([1]; read-out: CL) was 25 mL/min/kg, the clearance ([1]; read-out: High or Low CL) was less than 85 mL/min/kg and the Mitochondrial biogenesis [2] was “increased in a dose-dependent manner”. For the same compound, the Treadmill running distance (mdx mouse) was “increased distance over mdx vehicle treated group mice”, the “Pathology scored necrosis, quadriceps” value (mdx mouse muscle; 10 or 30 mg per kg PO, 34-35 days, FIG. 4) was “Decreased necrosis” and the “Inflammation, quadriceps muscle” value (mdx mouse muscle; FIG. 6) was “Decreased inflammation”. The Quadriceps muscle regeneration (mdx mouse muscle; FIG. 7) was “increases”, the Diaphragm muscle necrosis (mdx mouse muscle; FIG. 8) was “reduced diaphragm necrosis” and the “Necrotic region size, quadriceps” value [3] was “decreased”. For the same compound, the “Diaphragm fibrosis (hydroxyproline)” value (mdx mouse diaphragm) was “reduced fibrosis” and the Plasma creatinine [4] was “reduce plasma creatinine”.
